Measured values: patent US4166852A, “Piperazino-pyrimidines and their use as spasmolytic agents” (priority 1974, dated 1979)
Values after ≈ are worked out from the molar mass of the structure shown. Counter-ions that a name gives are not always drawn. Like-named read-outs stand apart in the source and are kept apart here.

Experiments:
rat = assay: catalepsy test, rat; type: in vivo, CD rat (Charles RIVER); conditions: po, orally, read-out: Catalepsy AD 50
Text: (§1) The neuroloptic effects of the compounds according to the invention have been shown with respect to the CD rat (Charles RIVER) taken orally in the catalepsy test according to S. COURVOISIER, R. DUCROT, and L. JULOU, in Psychotropic Drugs, S. GARATTINI and V. GHETTI, Edit.--ELSEVIER Publ. Co., AMSTERDAM, LONDON, NEW YORK, PRINCETON, 1957 P. 373 and also in the traction test of CD1 (Charles RIVER) mice taken orally S. COURVOISIER, Quart. Rev. Psychiat. Neurol. 17, 25 (1956), on the one hand and also in the spontaneous motility test.

mice [1] = assay: analgesic activity, painful abdominal torsions test with phenylbenzoquinone; type: in vivo, CD 1 (Charles RIVER) mice; conditions: for ED50: Mus musculus, po, mice, orally, read-out: Phenylbenzoquinone test on mice AD 50
Text: The analgesic properties of the products according to the invention have been shown with CD 1 (Charles RIVER) mice in the painful abdominal torsions test with phenylbenzoquinone according to the technique of E. Siegmund, R. Cadmus and Go.Lu--Proc. Soc. Exp. Biol. Med., 95, 729, (1957).

[2] = tested on: serotonine plantar oedema; assay: anti-serotonine activity, serotonine plantar oedema; type: in vivo, CD (Charles RIVER) rats; conditions: po; rat, orally; read-out: Serotonine plantar oedema AD 50
Text: (§2) The anti-serotonine activities of the compounds according to the invention have been shown by oral administration to the CD (Charles RIVER) rats using the technique of the serotonine plantar oedema (W. Theobald and R. Domenjoz--Arzneimittel Forsch, 8, 18, 1958 and with the CD 1 (Charles RIVER) mice using the technique known as "head twitch" according to S. J. Corne, R. W. Pickering and B. T. Warner, Brit. J. Pharmacol., 20, 106, (1963). The anti-serotonine activity has also been determined on the one hand on the tricoloured guinea-pig, given intravenously, according to a method derived from H. Konzet and R. Rossler, Arch. exp. Pathol, Pharmakol., 195, 71, (1940) and on the other hand in vitro with respect to the serotonine spasm of the isolated uterus of the rat according to the technique of A. Fanchamps, W. Doepfener, H. Weidman and A. Cerletti, Schw. Med. Worsch, 90, 1940, (1960).

[3] = acute toxicity, LD 50, CD 1 mice; type: in vivo; conditions: mouse, in vivo
Text: (§3) The acute toxicities of the compounds according to the invention have been determined on CD 1 (Charles RIVER) mice by intravenous and oral methods. The LD 50 of each compound has been calculated by the cumulative method of J. J. Reed and H. Muench, (Amer. J. Hyg., 1938, 27, 493).

[4] = tested on: isolated duodenum of the rabbit; assay: spasmolytic activity overall; type: cell-based; conditions: isolated duodenum of rabbits
Text: (§4) Ges. Physiol., 102, 123, (1904) with respect to the spasms of the isolated duodenum of rabbits caused either by acetylchlorine for the spasmolytic nemotropes or by barium chloride for the spasmolytic musculotropes.

serotonine = assay: antiserotonine properties on the whole (all four tests); parameters: species or system rat, mice, guinea pig; conditions: comparison within the series
Text: as §2

mouse [5] = assay: traction test, mouse; type: in vivo, CD1 (Charles RIVER) mice; conditions: po, orally, read-out: Traction AD 50
Text: as §1

[6] = tested on: isolated duodenum of the rabbit (acetylcholine); assay: spasmolytic effect on isolated duodenum, acetylcholine spasm; type: cell-based; conditions: Oryctolagus cuniculus, read-out: Spasmolytic effects EC 50 with respect to acetylcholine
Text: as §4

[7] = tested on: isolated duodenum of the rabbit (barium chloride); assay: spasmolytic effect on isolated duodenum, barium chloride spasm; type: cell-based; conditions: Oryctolagus cuniculus, read-out: Spasmolytic effects EC 50 with respect to barium chloride
Text: as §4

mice [8] = assay: acute toxicity, LD 50, CD 1 mice; type: in vivo; conditions: intravenous
Text: as §3

head twitch = assay: anti-serotonine activity, head twitch; type: in vivo, CD 1 (Charles RIVER) mice; conditions: Mus musculus, po; mice, orally; read-out: "Head-twitch" AD 50
Text: as §2

solubility = type: physicochemical
mouse [9] = assay: spontaneous motility test (hypomotility), mouse; type: in vivo, mice; conditions: po, 1 h, orally, 60 minutes before measuring, 50% reduction of mean motility, first 5 minutes, read-out: Hypomotility ED 50
Text: as §1
This latter technique comprises keeping an account of the displacements of the mice by means of a floor of metal strips which enables the spontaneous activity of the animals to be recorded during the first 5 minutes subsequent to their being introduced into the measuring chamber. The products are dispensed 60 minutes before measuring is effected and 10 mice are used per dose. The results are expressed in ED 50 which represents the dose of substance capable of reducing the mean motility of the treated animals by 50% relative to that of the sample group which has only received the dispensing carrier.

serotonine bronchospasms = assay: anti-serotonine activity, serotonine bronchospasms; type: in vivo, tricoloured guinea-pig; conditions: Cavia porcellus, iv; guinea pig, intravenously; read-out: Serotonine bronchospasms ED 50
Text: as §2

dogs = assay: anti-emetic activity, apomorphine vomiting test on dogs; type: in vivo; conditions: dogs; for ED50: Canis lupus familiaris, po, orally, apomorphine, read-out: Anti-emetic activity on dogs ED 50
Text: The anti-emetic properties of the compounds according to the invention have been shown by oral administration of apomorphine to dogs in the vomiting test according to G. Chen and C. J. Ensor, Pharmacol. exp. Therap., 98, 24 (1950).

[10] = intravenous, read-out: Acute toxicity for mice LD 50, intravenous
[11] = oral, read-out: Acute toxicity for mice LD 50, orally

Row | SMILES | ED50 (rat) | ED50 (mice [1]) | ED50 [2] | LD50 [3, 10] | LD50 [3, 11] | spasmolytic activity type / ranking [4] | antiserotonine properties ranking (serotonine) | ED50 (mouse [5]) | EC50 [6] | EC50 [7] | Acute toxicity for mice LD 50, intravenous (mice [8]) | ED50 (head twitch) | solubility in dilute hydrochloric acid (solubility) | solubility in ethanol (alcohol) (solubility) | solubility in water (solubility) | ED50 (mouse [9]) | ED50 (serotonine bronchospasms) | ED50 (dogs) | further results
1 | COCCCNc1nc(Cl)c(SC)c(N2CCN(C)CC2)n1 [Example 5, 3'-Methoxy-2-propylamino-4-N-methylpiperazino-6-chloro-5-methylthio-pyrimidine] | 175 mg/kg | 35 mg/kg | 90 mg/kg | 56 mg/kg | ~200 mg/kg | most effective | the greatest antiserotonine properties on the whole | 30 mg/kg | > 5 µg/mL | 1.3 µg/mL (≈ 3.76 µM) | – | – | – | – | – | – | – | – | analgesic activity ranking (mice [1]; comparison within the series): the most active
2 | CSc1c(Cl)nc(N(C)C(C)=O)nc1N1CCN(C)CC1 [Example 16, 2-(N-methyl-N-acetyl)amino-4-N-methylpiperazino-5-methylthio-6-chloro-pyrimidine hydrochloride] | – | – | 100 mg/kg | – | ~525 mg/kg | – | – | – | – | – | insoluble | > 100 mg/kg | – | – | – | – | – | – | –
3 | CCCCCNc1nc(Cl)c(SC)c(N2CCN(C)CC2)n1 [Example 24, 2-n.pentylamino-4-N-methylpiperazino-6-chloro-5-methylthiopyrimidine] | 400 mg/kg | 100 mg/kg | > 300 mg/kg | 87 mg/kg | ~600 mg/kg | most effective | the greatest antiserotonine properties on the whole | 210 mg/kg | 0.5 µg/mL (≈ 1.45 µM) | 0.12 µg/mL (≈ 0.349 µM) | – | 25 mg/kg | soluble | very soluble | insoluble | 80 mg/kg | 0.05 mg/kg | 1.9 mg/kg | –
4 | CCCCCCNc1nc(Cl)c(SC)c(N2CCN(C)CC2)n1 [Example 25, 2-n.hexylamino-4-N-methylpiperazino-6-chloro-5-methylthiopyrimidine] | > 300 mg/kg | 85 mg/kg | ~300 mg/kg | 70 mg/kg | – | most effective | – | > 300 mg/kg | 1 µg/mL (≈ 2.79 µM) | 0.2 µg/mL (≈ 0.559 µM) | – | 55 mg/kg | soluble | very soluble | insoluble | 70 mg/kg | 0.18 mg/kg | 5 mg/kg | solubility in solvents (solubility; solvents): very soluble
5 | CCCCN1CCN(c2nc(N(C)Cc3ccccc3)nc(Cl)c2SC)CC1 [Example 27, 2-(N-methyl N-benzylamino)-4-N-butylpiperazino-5-methylthio-6-chloropyrimidine hydrochloride] | – | 400 mg/kg | > 400 mg/kg | – | – | – | – | – | – | – | insoluble | – | – | – | insoluble | 160 mg/kg | – | 1.5 mg/kg | solubility in dimethylsulphoxide (solubility; dimethylsulphoxide): soluble
6 | CCCCN1CCN(c2nc(N3CCOCC3)nc(Cl)c2SC)CC1 [Example 29, 2-Morpholino-4-N-butylpiperazino-5-methylthio-6-chloropyrimidine] | – | 55 mg/kg | – | – | ~600 mg/kg | – | – | – | – | – | insoluble | 80 mg/kg | – | soluble | insoluble | 50 mg/kg | – | > 5 mg/kg | solubility in dilute methanesulphonic acid (solubility; dilute methanesulphonic acid): soluble
7 | CCCNc1nc(Cl)c(SC)c(N2CCN(C)CC2)n1 [Example 30, 2-n.propylamino-4-N-methylpiperazino-6-chloro-5-methylthiopyrimidine] | > 300 mg/kg | > 400 mg/kg | – | 60 mg/kg | ~200 mg/kg | most effective | the greatest antiserotonine properties on the whole | – | 9 µg/mL (≈ 28.5 µM) | 0.2 µg/mL (≈ 0.633 µM) | – | 10 mg/kg | soluble | soluble | insoluble | 25 mg/kg | 0.05 mg/kg | 0.16 mg/kg | anti-vomiting ranking (dogs; comparison within the series): the most strong anti-vomiting agents
8 | CCCCNc1nc(Cl)c(SC)c(N2CCN(C)CC2)n1 [Example 31, 2-n.butylamino-4-N-methylpiperazino-6-chloro-5-methylthiopyrimidine] | – | 100 mg/kg | > 100 mg/kg | 98 mg/kg | ~225 mg/kg | – | the greatest antiserotonine properties on the whole | – | 1.2 µg/mL (≈ 3.64 µM) | 0.3 µg/mL (≈ 0.909 µM) | – | 13 mg/kg | soluble | soluble | insoluble | 20 mg/kg | 0.1 mg/kg | ~3 mg/kg | –
